Key:
late watergrass [1] = assay: Test Example 1: herbicidal activity, application before weed generation under submerged conditions (Table 16, symbol A); format: in vivo, late watergrass (Echinochloa oryzicola); conditions: 320 g/ha applied herbicide
Procedure, shortened: (§1)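 Emulsion formulation, water-diluted to set dose, was put onto the flooded surface (4 cm depth, alluvial soil) the same day weeds were sown and 2.5-leaf rice transplanted. After 3 weeks at 25-30 °C under glass, each species was rated 0 (≤5% kill) to 5 (≥90% kill).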

Japanese bulrush = assay: Test Example 1: herbicidal activity, application before weed generation under submerged conditions (Table 16, symbol B); format: in vivo, Japanese bulrush (Schoenoplectus juncoides); conditions: 320 g/ha applied herbicide
Procedure, shortened: as §1

late watergrass [2] = assay: Test Example 2: herbicidal activity, application during weed generation under submerged conditions (Table 17, symbol A); format: in vivo, late watergrass (Echinochloa oryzicola); conditions: AAH 320 g/ha; application during weed generation, submerged conditions
Procedure, shortened: (§2)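 3-wk visual-criteria score after one water-surface dose. Emulsion formulation, water-diluted to set rate; applied at 1–2 leaf stage; alluvial soil, 4 cm standing water; seeds co-sown; greenhouse 25–30° C.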

oval-leafed pondweed = assay: Test Example 2: herbicidal activity, application during weed generation under submerged conditions (Table 17, symbol C); format: in vivo, oval-leafed pondweed (Monochoria vaginalis); conditions: AAH 320 g/ha; application during weed generation, submerged conditions
Procedure, shortened: as §2

barnyard grass [3] = assay: Test Example 3: herbicidal effect by foliage application, Wagner pot (Table 18, symbol H); format: in vivo, barnyard grass (Echinochloa crus-galli); conditions: amount of applied herbicide 320 g/ha
Procedure, shortened: (§3)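 Plants were sown in alluvial soil held under 0.1–0.5 cm standing water and grown 14 days in a greenhouse at 25–30 °C. An emulsifiable formulation, water-diluted to the set dose, was then sprayed onto the foliage, and effects were scored three weeks later using previously defined criteria.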

Chinese sprangletop = assay: Test Example 3: herbicidal effect by foliage application, Wagner pot (Table 18, symbol D); format: in vivo, chinese sprangletop (Leptochloa chinensis); conditions: amount of applied herbicide 320 g/ha
Procedure, shortened: as §3

rice flat sedge = assay: Test Example 3: herbicidal effect by foliage application, Wagner pot (Table 18, symbol E); format: in vivo, rice flat sedge (Cyperus iria); conditions: amount of applied herbicide 320 g/ha
Procedure, shortened: as §3

Italian ryegrass = assay: Test Example 4: herbicidal effect by soil treatment (Table 19, symbol K); format: in vivo, Italian ryegrass (Lolium multiflorum); conditions: amount of applied herbicide 320 g/ha
Procedure, shortened: (§4)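 Seeds were sown in sterilized diluvial soil and covered with about 1.5 cm of soil. An emulsion formulation diluted with water to a predetermined herbicide amount was sprayed evenly onto the soil surface. Plants grew in a greenhouse at 25° C. to 30° C., and the effect was scored three weeks after application using criteria from an earlier test.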

windgrass = assay: Test Example 4: herbicidal effect by soil treatment (Table 19, symbol L); format: in vivo, windgrass (Apera spica-venti); conditions: amount of applied herbicide 320 g/ha
Procedure, shortened: as §4

redroot pigweed = assay: Test Example 4: herbicidal effect by soil treatment (Table 19, symbol N); format: in vivo, redroot pigweed (Amaranthus retroflexus); conditions: amount of applied herbicide 320 g/ha
Procedure, shortened: as §4

southern crabgrass = assay: Test Example 5: herbicidal effect by foliage application, plastic box (Table 20, symbol F); format: in vivo, southern crabgrass (Digitaria ciliaris); conditions: foliage application, 320 g/ha, evaluated three weeks after application
Procedure, shortened: (§5)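 Plants sown in sterilized diluvial soil and grown 14 days in a greenhouse at 25° C to 30° C, then sprayed on the foliage with the compound's emulsion diluted in water to a predetermined herbicide amount. Injury to weeds and crops scored three weeks after application on a visual rating scale.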

green foxtail = assay: Test Example 5: herbicidal effect by foliage application, plastic box (Table 20, symbol G); format: in vivo, green foxtail (Setaria viridis); conditions: foliage application, 320 g/ha, evaluated three weeks after application
Procedure, shortened: as §5

barnyard grass [4] = assay: Test Example 5: herbicidal effect by foliage application, plastic box (Table 20, symbol H); format: in vivo, barnyard grass (Echinochloa crus-galli); conditions: foliage application, 320 g/ha, evaluated three weeks after application
Procedure, shortened: as §5

wild oat = assay: Test Example 5: herbicidal effect by foliage application, plastic box (Table 20, symbol I); format: in vivo, wild oat (Avena fatua); conditions: foliage application, 320 g/ha, evaluated three weeks after application
Procedure, shortened: as §5

blackgrass = assay: Test Example 5: herbicidal effect by foliage application, plastic box (Table 20, symbol J); format: in vivo, blackgrass (Alopecurus myosuroides); conditions: foliage application, 320 g/ha, evaluated three weeks after application
Procedure, shortened: as §5

persian speedwell = assay: Test Example 5: herbicidal effect by foliage application, plastic box (Table 20, symbol R); format: in vivo, Persian speedwell (Veronica persica); conditions: foliage application, 320 g/ha, evaluated three weeks after application
Procedure, shortened: as §5

Question: How did the “Herbicidal effect on A: late watergrass (grade 0-5)” value (late watergrass [1]) turn out when CCCC(=O)Oc1c(C)nn(C)c(=O)c1-c1c(-c2ccc(C(F)F)cc2)sc2ccc(F)cc12 [2-228] was run?
Answer: 5 (Herbicidal rate of 90% or more (almost completely withered))

Question: And the “Herbicidal effect on B: Japanese bulrush (grade 0-5)” value (Japanese bulrush)?
Answer: 4 (Herbicidal rate of 70% or more and less than 90%)

Question: What about the “herbicidal effect rating, A: late watergrass” value (late watergrass [2]) of the same molecule?
Answer: 3 (Herbicidal rate of 40% or more and less than 70%)

Question: And the “herbicidal effect rating, C: oval-leafed pondweed” value (oval-leafed pondweed)?
Answer: 3 (Herbicidal rate of 40% or more and less than 70%)

Question: What about the “herbicidal effect on H: barnyard grass” value (barnyard grass [3]) of the same molecule?
Answer: 5 (Herbicidal rate of 90% or more (almost completely withered))

Question: And the “herbicidal effect on D: Chinese sprangletop” value (Chinese sprangletop)?
Answer: 4 (Herbicidal rate of 70% or more and less than 90%)

Question: And the “herbicidal effect on E: rice flat sedge” value (rice flat sedge)?
Answer: 5 (Herbicidal rate of 90% or more (almost completely withered))

Question: And the “herbicidal effect on K: Italian ryegrass” value (Italian ryegrass)?
Answer: 0 (Herbicidal rate of 5% or less (almost no effect))

Question: And the “herbicidal effect on L: windgrass” value (windgrass)?
Answer: 0 (Herbicidal rate of 5% or less (almost no effect))

Question: What about the “herbicidal effect on N: redroot pigweed” value (redroot pigweed) of the same molecule?
Answer: 4 (Herbicidal rate of 70% or more and less than 90%)

Question: And the “herbicidal effect on F: southern crabgrass (criteria 0-5)” value (southern crabgrass)?
Answer: 4 (Herbicidal rate of 70% or more and less than 90%)

Question: And the “herbicidal effect on G: green foxtail (criteria 0-5)” value (green foxtail)?
Answer: 5 (Herbicidal rate of 90% or more (almost completely withered))

Question: What about the “herbicidal effect on H: barnyard grass (criteria 0-5)” value (barnyard grass [4]) of the same molecule?
Answer: 5 (Herbicidal rate of 90% or more (almost completely withered))

Question: And the “herbicidal effect on I: wild oat (criteria 0-5)” value (wild oat)?
Answer: 0 (Herbicidal rate of 5% or less (almost no effect))

Question: What about the “herbicidal effect on J: blackgrass (criteria 0-5)” value (blackgrass) of the same molecule?
Answer: 3 (Herbicidal rate of 40% or more and less than 70%)

Question: And the “herbicidal effect on R: persian speedwell (criteria 0-5)” value (persian speedwell)?
Answer: 5 (Herbicidal rate of 90% or more (almost completely withered))

Question: Which results are given for CCSc1ccc(-c2sc3ccc(F)cc3c2-c2c(O)c(C)nn(C)c2=O)cc1 [2-244]?
Answer: Herbicidal effect on A: late watergrass (grade 0-5) (late watergrass [1]): 3 (Herbicidal rate of 40% or more and less than 70%); Herbicidal effect on B: Japanese bulrush (grade 0-5) (Japanese bulrush): 0 (Herbicidal rate of 5% or less (almost no effect)); herbicidal effect rating, A: late watergrass (late watergrass [2]): 5 (Herbicidal rate of 90% or more (almost completely withered)); herbicidal effect rating, C: oval-leafed pondweed (oval-leafed pondweed): 4 (Herbicidal rate of 70% or more and less than 90%); herbicidal effect on H: barnyard grass (barnyard grass [3]): 5 (Herbicidal rate of 90% or more (almost completely withered)); herbicidal effect on D: Chinese sprangletop (Chinese sprangletop): 5 (Herbicidal rate of 90% or more (almost completely withered)); herbicidal effect on E: rice flat sedge (rice flat sedge): 5 (Herbicidal rate of 90% or more (almost completely withered)); herbicidal effect on K: Italian ryegrass (Italian ryegrass): 4 (Herbicidal rate of 70% or more and less than 90%); herbicidal effect on L: windgrass (windgrass): 3 (Herbicidal rate of 40% or more and less than 70%); herbicidal effect on N: redroot pigweed (redroot pigweed): 5 (Herbicidal rate of 90% or more (almost completely withered)); herbicidal effect on F: southern crabgrass (criteria 0-5) (southern crabgrass): 5 (Herbicidal rate of 90% or more (almost completely withered)); herbicidal effect on G: green foxtail (criteria 0-5) (green foxtail): 5 (Herbicidal rate of 90% or more (almost completely withered)); herbicidal effect on H: barnyard grass (criteria 0-5) (barnyard grass [4]): 5 (Herbicidal rate of 90% or more (almost completely withered)); herbicidal effect on I: wild oat (criteria 0-5) (wild oat): 5 (Herbicidal rate of 90% or more (almost completely withered)); herbicidal effect on J: blackgrass (criteria 0-5) (blackgrass): 5 (Herbicidal rate of 90% or more (almost completely withered)); herbicidal effect on R: persian speedwell (criteria 0-5) (persian speedwell): 5 (Herbicidal rate of 90% or more (almost completely withered))
